Tested on: neuronal activity marker phosphorylated-ERK (pERK)
Assay: Whole brain activity profiling, pERK/tERK immunolabeling and MAP-mapping
Format: in vivo, Zebrafish (Danio rerio)
Experimental: To investigate how AS1 might alter central nervous system activity in the presence of nociceptive stimuli, whole brain activity profiling with the neuronal activity marker phosphorylated-ERK (pERK) was performed. Briefly, 6 dpf larval zebrafish were exposed to noxious heat (37.5° C.) or rearing temperature (28.5° C.) in the presence of vehicle or AS1 (either 2.5 or 5 μM) for 15 minutes. Immunolabeling was then performed to detect both total ERK (tERK) and phosphorylated ERK (pERK) (FIG. 8). Volumetric z-stacks of the entire brain of each fish were taken upon a confocal microscope, registered to a reference brain, and smoothed using an ImageJ script. […] Brains from each experimental condition (AS1+28.5° C., Vehicle+37.5° C., and AS1+37.5° C.) with Vehicle+28.5° C. were initially compared to determine how activity under these experimental conditions differed from the baseline state, then the total change in signal in each brain region were subtracted for AS1+28.5° C. and Vehicle+37.5° C. treated fish from AS1+37.5° C. treated fish. This was done to look for brain regions specifically activated in the presence of the noxious stimulus and AS1, reasoning that these areas would drive attraction to noxious stimuli.
pERK Immunolabeling. […]

CC(C)c1ccc(C(=O)Nc2ccncc2)cc1 [AS1, 4-propan-2-yl-N-pyridin-4-ylbenzamide]
share of the top 25 most active regions that are subpallial/dopaminergic populations (AS1 + noxious heat (37.5° C.)): 64% | brain regions recruited by AS1 alone (AS1-treated fish not exposed to noxious heat (28.5° C.)): primarily recruited neuron clusters within the mesencephalon and rhombencephalon
